Test system: HepG2-A16-CD81EGFP cells
Conditions: 2nd round; maximal inhibition in dose series

| SMILES | Tox_max_inhibition (%) |
| --- | --- |
| COc1ccc(C#Cc2ccc3c(c2)O[C@@H](CN(C)C(=O)Nc2cccc(OC)c2)[C@@H](C)CN([C@@H](C)CO)S3(=O)=O)cc1 [BRD-K52609475-001-01-4] | 6 |
| COc1ccc(-c2ccccc2[C@@H]2[C@@H](C#N)N(C(=O)NC3CCCCC3)[C@H]2CO)cc1 [BRD-K55353065-001-01-2] | 11 |
| COc1ccc(S(=O)(=O)Nc2ccc3c(c2)C(=O)N([C@H](C)CO)C[C@@H](C)[C@@H](CN(C)S(=O)(=O)c2ccc(Cl)cc2)OCCCC[C@@H](C)O3)cc1 [BRD-K63849586-001-01-9] | 13 |
| N#Cc1ccc(-c2ccc(C3[C@@H]4CN(C(=O)Nc5ccc6c(c5)OCO6)C[C@H]3N4)cc2)cc1 (stereo partly drawn) [BRD-K65395967-019-01-2] | 28 |
| C[C@@H]1CN([C@@H](C)CO)C(=O)c2cc(NC(=O)Nc3ccc4c(c3)OCO4)ccc2O[C@@H](C)CCCCO[C@H]1CN(C)S(=O)(=O)c1ccccc1 [BRD-K69357983-001-01-6] | 9 |
| CCCNC(=O)N1[C@H](C#N)[C@@H](c2ccccc2C2=CCCCC2)[C@@H]1CO [BRD-K70760948-001-01-2] | 10 |
| C[C@H]1CN([C@@H](C)CO)C(=O)c2cccc(NC(=O)c3ccc(-c4nccs4)cc3)c2O[C@H]1CN(C)C(=O)Nc1ccc(C(F)(F)F)cc1 [BRD-K73614094-001-01-0] | 12 |
| CCCC(=O)N1CCC2(CC1)CN(S(=O)(=O)c1ccc(C)cc1)[C@@H](CO)c1[nH]c3cc(OC)ccc3c12 [BRD-K73703617-001-01-9] | 12 |
| CCCNC(=O)Nc1ccc2c(c1)OC[C@@H](C)N(Cc1ccccc1)C[C@@H](C)[C@H](OC)CN(C)C2=O [BRD-K76980944-001-01-4] | 6 |
| C[C@@H]1CN([C@@H](C)CO)C(=O)c2cc(C#Cc3ccccc3)cnc2O[C@H]1CN(C)C(=O)c1ccccc1 [BRD-K77826636-001-01-1] | 20 |
| C[C@H](CO)N1C[C@H](C)[C@@H](CN(C)S(=O)(=O)c2ccccc2)OCCCC[C@H](C)Oc2ccc(NC(=O)Nc3ccc4c(c3)OCO4)cc2C1=O [BRD-K78605373-001-01-5] | 10 |
| CCCNC(=O)N1[C@H](C#N)[C@H](c2ccc(-c3ccccc3F)cc2)[C@@H]1CO [BRD-K81164606-001-02-5] | 43 |
| N#C[C@H]1[C@@H](c2ccc(C3=CCCCC3)cc2)[C@@H](CO)N1C(=O)Nc1ccccc1F [BRD-K81680265-001-01-4] | 11 |
| C(=C\c1ccc(C2[C@@H]3CN(Cc4nccs4)C[C@H]2N3)cc1)/c1ccccc1 (stereo partly drawn) [BRD-K82593502-019-01-3] | 13 |

Same assay, conditions: read-out: Tox_IC50; 2nd round; HepG2 cytotoxicity; unit inferred

| SMILES | IC50 [µM] |
| --- | --- |
| COc1ccc(C#Cc2ccc3c(c2)O[C@@H](CN(C)C(=O)Nc2cccc(OC)c2)[C@@H](C)CN([C@@H](C)CO)S3(=O)=O)cc1 [BRD-K52609475-001-01-4] | > 10 |
| COc1ccc(-c2ccccc2[C@@H]2[C@@H](C#N)N(C(=O)NC3CCCCC3)[C@H]2CO)cc1 [BRD-K55353065-001-01-2] | > 10 |
| COc1ccc(S(=O)(=O)Nc2ccc3c(c2)C(=O)N([C@H](C)CO)C[C@@H](C)[C@@H](CN(C)S(=O)(=O)c2ccc(Cl)cc2)OCCCC[C@@H](C)O3)cc1 [BRD-K63849586-001-01-9] | > 10 |
| N#Cc1ccc(-c2ccc(C3[C@@H]4CN(C(=O)Nc5ccc6c(c5)OCO6)C[C@H]3N4)cc2)cc1 (stereo partly drawn) [BRD-K65395967-019-01-2] | > 10 |
| C[C@@H]1CN([C@@H](C)CO)C(=O)c2cc(NC(=O)Nc3ccc4c(c3)OCO4)ccc2O[C@@H](C)CCCCO[C@H]1CN(C)S(=O)(=O)c1ccccc1 [BRD-K69357983-001-01-6] | > 10 |
| CCCNC(=O)N1[C@H](C#N)[C@@H](c2ccccc2C2=CCCCC2)[C@@H]1CO [BRD-K70760948-001-01-2] | > 10 |
| C[C@H]1CN([C@@H](C)CO)C(=O)c2cccc(NC(=O)c3ccc(-c4nccs4)cc3)c2O[C@H]1CN(C)C(=O)Nc1ccc(C(F)(F)F)cc1 [BRD-K73614094-001-01-0] | > 10 |
| CCCC(=O)N1CCC2(CC1)CN(S(=O)(=O)c1ccc(C)cc1)[C@@H](CO)c1[nH]c3cc(OC)ccc3c12 [BRD-K73703617-001-01-9] | > 10 |
| CCCNC(=O)Nc1ccc2c(c1)OC[C@@H](C)N(Cc1ccccc1)C[C@@H](C)[C@H](OC)CN(C)C2=O [BRD-K76980944-001-01-4] | > 10 |
| C[C@@H]1CN([C@@H](C)CO)C(=O)c2cc(C#Cc3ccccc3)cnc2O[C@H]1CN(C)C(=O)c1ccccc1 [BRD-K77826636-001-01-1] | > 10 |
| C[C@H](CO)N1C[C@H](C)[C@@H](CN(C)S(=O)(=O)c2ccccc2)OCCCC[C@H](C)Oc2ccc(NC(=O)Nc3ccc4c(c3)OCO4)cc2C1=O [BRD-K78605373-001-01-5] | > 10 |
| CCCNC(=O)N1[C@H](C#N)[C@H](c2ccc(-c3ccccc3F)cc2)[C@@H]1CO [BRD-K81164606-001-02-5] | > 10 |
| N#C[C@H]1[C@@H](c2ccc(C3=CCCCC3)cc2)[C@@H](CO)N1C(=O)Nc1ccccc1F [BRD-K81680265-001-01-4] | > 10 |
| C(=C\c1ccc(C2[C@@H]3CN(Cc4nccs4)C[C@H]2N3)cc1)/c1ccccc1 (stereo partly drawn) [BRD-K82593502-019-01-3] | > 10 |

Same assay, conditions: read-out: Tox_IC50; sheet 2nd round; HepG2 cytotoxicity

| SMILES | IC50 [µM] |
| --- | --- |
| C[C@@H]1CN([C@H](C)CO)C(=O)c2cc(NC(=O)Nc3ccc4c(c3)OCO4)ccc2O[C@@H](C)CCCCO[C@H]1CN(C)S(=O)(=O)c1ccccc1 [BRD-K54383078-001-01-5] | > 10 |
| COc1ccc(NC(=O)N2CCCCN3[C@H](CO)[C@@H](c4ccc(-c5ccccc5F)cc4)[C@H]3C2)cc1 [BRD-K55569739-001-01-9] | > 10 |
| C[C@H]1CN([C@@H](C)CO)C(=O)c2cccc(NC(=O)NC3CCCCC3)c2O[C@H]1CN(C)Cc1ccc(C(F)(F)F)cc1 [BRD-K56432748-001-01-8] | > 10 |
| O=C(C[C@@H]1C[C@H]2c3cc(NC(=O)c4ccc5c(c4)OCO5)ccc3O[C@H]2[C@H](CO)O1)NCc1ccc(Oc2ccccc2)cc1 [BRD-K60334624-001-01-9] | > 10 |
| Cc1ccc(S(=O)(=O)N2CC[C@H]3[C@H](CO)Nc4ccc(-c5cccc(C(=O)N(C)C)c5)cc4[C@H]32)cc1 [BRD-K64741770-001-01-3] | > 10 |
| O=C(C[C@H]1C[C@H]2c3cc(NC(=O)c4ccc5c(c4)OCO5)ccc3O[C@H]2[C@H](CO)O1)NCc1ccc(Oc2ccccc2)cc1 [BRD-K67774729-001-02-1] | > 10 |
| O=C(C[C@@H]1C[C@H]2c3cc(NC(=O)c4ccc5c(c4)OCO5)ccc3O[C@H]2[C@@H](CO)O1)NCc1ccc(Oc2ccccc2)cc1 [BRD-K67862512-001-01-7] | > 10 |
| Cc1ccccc1-c1ccc2c(c1)O[C@H](CN(C)C(=O)Nc1ccc(C(F)(F)F)cc1)[C@@H](C)CN([C@@H](C)CO)S2(=O)=O [BRD-K68538844-001-01-1] | > 10 |
| N#C[C@H]1[C@H](c2ccc(-c3cccc(F)c3)cc2)[C@@H](CO)N1C(=O)NC1CCCC1 [BRD-K69441790-001-01-1] | 9.7 |
| COc1ccccc1C#Cc1ccc([C@H]2[C@@H](C#N)N(C(=O)C3CCCC3)[C@H]2CO)cc1 [BRD-K71730412-001-01-1] | > 10 |

Same assay, conditions: sheet 2nd round; maximal inhibition in dose response

| SMILES | Tox_max_inhibition (%) |
| --- | --- |
| C[C@@H]1CN([C@H](C)CO)C(=O)c2cc(NC(=O)Nc3ccc4c(c3)OCO4)ccc2O[C@@H](C)CCCCO[C@H]1CN(C)S(=O)(=O)c1ccccc1 [BRD-K54383078-001-01-5] | 5.48 |
| COc1ccc(NC(=O)N2CCCCN3[C@H](CO)[C@@H](c4ccc(-c5ccccc5F)cc4)[C@H]3C2)cc1 [BRD-K55569739-001-01-9] | 3.75 |
| C[C@H]1CN([C@@H](C)CO)C(=O)c2cccc(NC(=O)NC3CCCCC3)c2O[C@H]1CN(C)Cc1ccc(C(F)(F)F)cc1 [BRD-K56432748-001-01-8] | 10 |
| O=C(C[C@@H]1C[C@H]2c3cc(NC(=O)c4ccc5c(c4)OCO5)ccc3O[C@H]2[C@H](CO)O1)NCc1ccc(Oc2ccccc2)cc1 [BRD-K60334624-001-01-9] | 4.54 |
| Cc1ccc(S(=O)(=O)N2CC[C@H]3[C@H](CO)Nc4ccc(-c5cccc(C(=O)N(C)C)c5)cc4[C@H]32)cc1 [BRD-K64741770-001-01-3] | 15 |
| O=C(C[C@H]1C[C@H]2c3cc(NC(=O)c4ccc5c(c4)OCO5)ccc3O[C@H]2[C@H](CO)O1)NCc1ccc(Oc2ccccc2)cc1 [BRD-K67774729-001-02-1] | 24 |
| O=C(C[C@@H]1C[C@H]2c3cc(NC(=O)c4ccc5c(c4)OCO5)ccc3O[C@H]2[C@@H](CO)O1)NCc1ccc(Oc2ccccc2)cc1 [BRD-K67862512-001-01-7] | 23 |
| Cc1ccccc1-c1ccc2c(c1)O[C@H](CN(C)C(=O)Nc1ccc(C(F)(F)F)cc1)[C@@H](C)CN([C@@H](C)CO)S2(=O)=O [BRD-K68538844-001-01-1] | 35 |
| N#C[C@H]1[C@H](c2ccc(-c3cccc(F)c3)cc2)[C@@H](CO)N1C(=O)NC1CCCC1 [BRD-K69441790-001-01-1] | 57 |
| COc1ccccc1C#Cc1ccc([C@H]2[C@@H](C#N)N(C(=O)C3CCCC3)[C@H]2CO)cc1 [BRD-K71730412-001-01-1] | 13 |

From article PMC4890880 (ACS infectious diseases, 2016)
